Key:
[1] = logD by shake flask method (octanol / PBS pH 7.4, HPLC); assay type: physicochemical; conditions: octanol / PBS pH 7.4, shake flask
Protocol: In order to classify the inventive compounds according to their lipophilicity, LogD values (distribution coefficient) were determined by means of the well-established shake flask method, measuring the partition of a compound between an octanol and phosphate-buffered saline (PBS, pH 7.4) by HPLC.
The LogD is pH dependent and is a “predictor” for in-vivo properties. LogD combines lipophilicity (intrinsic structural property of the molecule, logP) and ionizability (pKa). Compounds with a moderate lipophilicity (LogD values from 0 to 3) are usually advantaged for oral absorption, being in balance between solubility and permeability. However, sophisticated formulation of a compound might improve oral bioavailability for highly lipophilic compounds.

[2] = Caco-2 permeability assay (CacoReady kit); assay type: in vitro ADME; conditions: human, Caco-2, Caco-2 barrier, CacoReady kit; above 1×10^−6 cm/s classified as permeable
Protocol: Permeability coefficients (Papp values) were obtained from Caco-2 barrier studies predicting oral/intestinal bioavailability of the tested compounds. The assays were performed by using CacoReady™ ready-to-use kits from ReadyCell according to the manufacturers protocol.

[3] = target: T1, recombinant human transglutaminase 2 (Homo sapiens, UniProt P21980); assay: Transglutaminase assay (DCC-assay): incorporation of dansylcadaverine into dimethylcasein; assay type: biochemical; conditions: recombinant human TG2 10 nM; dansylcadaverine incorporation into dimethylcasein; read-out: IC50 TG2
T1 construct: purchased Zedira T022
T1 sequence (P21980 1-687): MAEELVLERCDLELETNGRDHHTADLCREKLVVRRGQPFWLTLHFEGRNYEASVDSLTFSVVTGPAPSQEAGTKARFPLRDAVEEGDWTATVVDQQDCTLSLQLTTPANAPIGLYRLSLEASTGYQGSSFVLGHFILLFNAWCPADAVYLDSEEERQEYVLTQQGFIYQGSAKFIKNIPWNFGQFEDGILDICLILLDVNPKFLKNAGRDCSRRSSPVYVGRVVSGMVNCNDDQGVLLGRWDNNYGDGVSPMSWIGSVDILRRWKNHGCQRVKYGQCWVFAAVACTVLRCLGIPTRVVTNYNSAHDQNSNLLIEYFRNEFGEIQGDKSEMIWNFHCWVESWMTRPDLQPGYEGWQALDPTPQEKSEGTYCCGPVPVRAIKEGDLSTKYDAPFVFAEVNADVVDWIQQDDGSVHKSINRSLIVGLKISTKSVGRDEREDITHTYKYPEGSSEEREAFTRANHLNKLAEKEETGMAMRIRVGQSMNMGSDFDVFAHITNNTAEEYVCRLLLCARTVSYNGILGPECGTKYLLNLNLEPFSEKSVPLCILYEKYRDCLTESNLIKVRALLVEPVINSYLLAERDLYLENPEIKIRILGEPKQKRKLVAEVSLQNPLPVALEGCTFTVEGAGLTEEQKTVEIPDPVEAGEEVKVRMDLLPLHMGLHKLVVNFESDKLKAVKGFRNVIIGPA
Protocol: To illustrate the advantage of branched alkyl moieties over aromatic moieties, we refer to reference compounds Ref. 2 (ZED1227, U.S. Pat. No. 9,434,763 B2) and Ref. 3 (A8, ZED1047). Inhibition data were determined using the classical fluorescent transamidation assay (dansylcadaverine incorporation into methylated casein, DCC-assay) as described [Buchold, C.; Hils, M.; Gerlach, U.; Weber, J.; Pelzer, C.; Heil, A.; Aeschlimann, D.; Pasternack, R. Features of ZED1227: The First-In-Class Tissue Transglutaminase Inhibitor Undergoing Clinical Evaluation for the Treatment of Celiac Disease. Cells 2022, 11, 1667. https://doi.org/10.3390/cells11101667]. Casein is one of the best known high molecular weight (24 kDa) protein substrates for transglutaminases. Please note, the IC50 value of Ref. 3 (A8) published in U.S. Pat. No. 9,434,763 B2 cannot be compared to the present data, relying on a fluorogenic isopeptidase assay.
To this extent, inhibition data were determined using the classical fluorescent transamidation assay (dansylcadaverine incorporation into methylated casein, DCC-assay) as described in Büchold et al. [Büchold, C.; Hils, M.; Gerlach, U.; Weber, J.; Pelzer, C.; Heil, A.; Aeschlimann, D.; Pasternack, R. Features of ZED1227: The First-In-Class Tissue Transglutaminase Inhibitor Undergoing Clinical Evaluation for the Treatment of Celiac Disease. Cells 2022, 11, 1667. https://doi.org/10.3390/cells11101667]. Casein is one of the best known high molecular weight (24 kDa) protein substrates for transglutaminases. Inhibition data of the inventive compounds was compared with inhibition of compounds disclosed in U.S. Pat. No. 9,434,763 B2, particularly, compound A8, which is denoted herein as Reference 3. It is noteworthy that the IC50 values of compounds A8 published in U.S. Pat. No. 9,434,763 B2 and E16 from U.S. Pat. No. 11,072,634 B2 cannot be compared to the present data, relying on a fluorogenic isopeptidase assay.
For the determination of potency of inhibitors against tissue transglutaminase, the incorporation of dansylcadaverine into dimethylcasein (Zedira product T036, Lorand et al., Anal Biochem, 1971, 44:221-31) was measured using recombinant human transglutaminase 2 (Zedira Product T022).
The tissue transglutaminase is diluted in buffer (50 mM Tris-HCl, 7.5 mM CaCl2), 150 mM NaCl, pH=7.4). The final concentration of TG2 in the assay is 10 nM.
A 10 mM inhibitor stock solution is prepared in DMSO, and from this a serial 1:2-fold dilution series is prepared also in DMSO. Each of the initial dilutions is subsequently diluted 1:50-fold with buffer (50 mM Tris-HCl, 7.5 mM CaCl2), 150 mM NaCl, pH=7.4) to yield the final working dilutions containing 2% (v/v) DMSO.
15 μl of inhibitor working dilution are added per well of a 96 well microtiter plate. As control, 15 μl of a 2% (v/v) DMSO solution prepared using the buffer mentioned above are added per well.
Immediately before starting the assay, 600 μl transglutaminase working solution are added to 11.4 ml assay buffer (50 mM Tris-HCl, 10 mM CaCl2), 10 mM glutathione, 2.5% glycerol, 16.7 µM dansylcadaverine, 4 uM N,N-dimethylcasein, 200 mM NaCl, pH=8.0). 285 μl of this reaction mix are added per well containing the inhibitor.
Increase in fluorescence is measured using λex=330 nm and λem=500 nm at 37° C. for 30 min. A slope of the increase in fluorescence between 20 and 30 min is calculated for determination of the IC50 value (inhibitor concentration at which 50% of the initial activity is blocked).
Analysis of enzymatic activity is performed by calculation of the slope of an increase in fluorescence intensity. IC50 values are calculated by plotting the enzymatic activity (as percentage from control containing 2% DMSO instead of inhibitor) against the inhibitor concentration. IC50 is defined as the inhibitor concentration blocking 50% of initial enzyme activity.

logD [1]	Papp [2] [×10⁻⁶ cm/s]	IC50 [3] [nM]	Compound
1 to 3	1 to 10	40 to 400	CNC(=O)C(=O)CC[C@H](NC(=O)c1sc(Cl)nc1Cl)C(=O)Nc1cccn(CC(=O)NC2C3CC4CC(C3)CC2C4)c1=O (stereo partly drawn) [II-17, (S)-2-(2,4-dichlorothiazole-5-carboxamido)-N1-(1-(2-(2-adamantylamino)-2-oxoethyl)-2-oxo-1,2-dihydropyridin-3-yl)-N6-methyl-5-oxohexanediamide]
3 to 5	1 to 10	< 40	CNC(=O)C(=O)CC[C@H](NC(=O)c1sc(Br)cc1C)C(=O)Nc1cccn(CC(=O)NC2C3CC4CC(C3)CC2C4)c1=O (stereo partly drawn) [II-21, (S)-2-(5-bromo-3-methylthiophene-2-carboxamido)-N1-(1-(2-(2-adamantylamino)-2-oxoethyl)-2-oxo-1,2-dihydropyridin-3-yl)-N6-methyl-5-oxohexanediamide]
3 to 5	1 to 10	40 to 400	CNC(=O)C(=O)CC[C@H](NC(=O)c1ccc(Br)s1)C(=O)Nc1cccn(CC(=O)NC2C3CC4CC(C3)CC2C4)c1=O (stereo partly drawn) [II-23, (S)-2-(5-bromothiophene-2-carboxamido)-N1-(1-(2-(2-adamantylamino)-2-oxoethyl)-2-oxo-1,2-dihydropyridin-3-yl)-N6-methyl-5-oxohexanediamide]
1 to 3	1 to 10	40 to 400	CNC(=O)C(=O)CC[C@H](NC(=O)c1oc(Br)cc1C)C(=O)Nc1cccn(CC(=O)NC2C3CC4CC(C3)CC2C4)c1=O (stereo partly drawn) [II-25, (S)-2-(5-bromo-3-methylfuran-2-carboxamido)-N1-(1-(2-(2-adamantylamino)-2-oxoethyl)-2-oxo-1,2-dihydropyridin-3-yl)-N6-methyl-5-oxohexanediamide]
1 to 3	1 to 10	40 to 400	CNC(=O)C(=O)CC[C@H](NC(=O)c1ccc(Cl)o1)C(=O)Nc1cccn(CC(=O)NC2C3CC4CC(C3)CC2C4)c1=O (stereo partly drawn) [II-26, (S)-2-(5-chlorofuran-2-carboxamido)-N1-(1-(2-(2-adamantylamino)-2-oxoethyl)-2-oxo-1,2-dihydropyridin-3-yl)-N6-methyl-5-oxohexanediamide]
3 to 5	1 to 10	< 40	CNC(=O)C(=O)CC[C@H](NC(=O)c1cc(Br)sc1Br)C(=O)Nc1cccn(CC(=O)NC2C3CC4CC(C3)CC2C4)c1=O (stereo partly drawn) [II-29, (S)-2-(2,5-dibromothiophene-3-carboxamido)-N1-(1-(2-(2-adamantylamino)-2-oxoethyl)-2-oxo-1,2-dihydropyridin-3-yl)-N6-methyl-5-oxohexanediamide]

More lines, now with the values behind:

Compound	logD [1]	Papp [2] [×10⁻⁶ cm/s]	IC50 [3] [nM]
CNC(=O)C(=O)CC[C@H](NC(=O)c1sc(C(F)(F)F)nc1Br)C(=O)Nc1cccn(CC(=O)NC2C3CC4CC(C3)CC2C4)c1=O (stereo partly drawn) [II-16, (S)-2-(4-bromo-2-(trifluoromethyl)thiazole-5-carboxamido)-N1-(1-(2-(2-adamantylamino)-2-oxoethyl)-2-oxo-1,2-dihydropyridin-3-yl)-N6-methyl-5-oxohexanediamide]	1 to 3	1 to 10	< 40
CNC(=O)C(=O)CC[C@H](NC(=O)c1sc(OC)nc1C)C(=O)Nc1cccn(CC(=O)NC2C3CC4CC(C3)CC2C4)c1=O (stereo partly drawn) [II-18, (S)-N1-(1-(2-(2-adamantylamino)-2-oxoethyl)-2-oxo-1,2-dihydropyridin-3-yl)-2-(2-methoxy-4-methylthiazole-5-carboxamido)-N6-methyl-5-oxohexanediamide]	1 to 3	< 1	40 to 400
CNC(=O)C(=O)CC[C@H](NC(=O)c1sc(-c2ccccc2)nc1C)C(=O)Nc1cccn(CC(=O)NC2C3CC4CC(C3)CC2C4)c1=O (stereo partly drawn) [II-19, (S)-N1-(1-(2-(2-adamantylamino)-2-oxoethyl)-2-oxo-1,2-dihydropyridin-3-yl)-N6-methyl-2-(4-methyl-2-phenylthiazole-5-carboxamido)-5-oxohexanediamide]	3 to 5	< 1	40 to 400
CNC(=O)C(=O)CC[C@H](NC(=O)c1sc(C)nc1C)C(=O)Nc1cccn(CC(=O)NC2C3CC4CC(C3)CC2C4)c1=O (stereo partly drawn) [II-20, (S)-2-(2,4-dimethylthiazole-5-carboxamido)-N1-(1-(2-(2-adamantylamino)-2-oxoethyl)-2-oxo-1,2-dihydropyridin-3-yl)-N6-methyl-5-oxohexanediamide]	1 to 3	1 to 10	400 to 2500
CNC(=O)C(=O)CC[C@H](NC(=O)c1sc(Br)cc1Br)C(=O)Nc1cccn(CC(=O)NC2C3CC4CC(C3)CC2C4)c1=O (stereo partly drawn) [II-22, (S)-2-(3,5-dibromothiophene-2-carboxamido)-N1-(1-(2-(2-adamantylamino)-2-oxoethyl)-2-oxo-1,2-dihydropyridin-3-yl)-N6-methyl-5-oxohexanediamide]	3 to 5	1 to 10	< 40
CNC(=O)C(=O)CC[C@H](NC(=O)c1ccc(Cl)s1)C(=O)Nc1cccn(CC(=O)NC2C3CC4CC(C3)CC2C4)c1=O (stereo partly drawn) [II-24, (S)-2-(5-chlorothiophene-2-carboxamido)-N1-(1-(2-(2-adamantylamino)-2-oxoethyl)-2-oxo-1,2-dihydropyridin-3-yl)-N6-methyl-5-oxohexanediamide]	1 to 3	1 to 10	40 to 400
CNC(=O)C(=O)CC[C@H](NC(=O)c1csc(Cl)c1)C(=O)Nc1cccn(CC(=O)NC2C3CC4CC(C3)CC2C4)c1=O (stereo partly drawn) [II-27, (S)-2-(5-chlorothiophene-3-carboxamido)-N1-(1-(2-(2-adamantylamino)-2-oxoethyl)-2-oxo-1,2-dihydropyridin-3-yl)-N6-methyl-5-oxohexanediamide]	1 to 3	1 to 10	40 to 400
